{
  "source": "patent US8759098B2",
  "about": "“Method for cloning pluripotent stem cells” (Boston Biomedical Research Institute, Inc., priority 2009, dated 2014)",
  "origin": "cited, not measured here",
  "system": "somatic cells",
  "settings": "low oxygen conditions; Page et al. 2009; cited from earlier work",
  "data": [
    {"substance": "FGF2: fibroblast growth factor 2", "values": [
      {"measurement": "expression of pluripotency inducing genes", "value": "increased"}
    ]}
  ]
}
